Results from patent US9358252B2, “Polysaccharide compositions and methods of use for the treatment and prevention of disorders associated with progenitor cell mobilization” (MOMENTA PHARMACEUTICALS, INC., priority 2007, dated 2016).

Experiments:
[1] = system: endothelial progenitor cells (EPC); test: EPC mobilization in mice, second experiment (daily MONC402 with G-CSF); format: in vivo; settings: G-CSF 200 μg/kg s.c. 5 consecutive days; docetaxel i.p. 40 mg/kg
Description: In a second experiment, it was tested if daily dosing for 5 days with MONC402 would generate a stronger inhibitory effect on EPC mobilization caused by treatment with a taxane.
Mice (10 mice/group) were dosed s.c. with Saline or MONC402 (40 mg/kg), or DC101 (40 mg/kg, as a positive inhibition control with docetaxel). About 30 min later, mice were given docetaxel (i.p., 40 mg/kg) or saline control. As a positive control, 2 groups of mice were also dosed with G-CSF (200 μg/kg) s.c. for 5 consecutive days±daily MONC402. 24 h later, the mice were euthanized, and 500-800 μL of blood taken by cardiac puncture. 150 μL were transferred into 5 mL of lysis buffer for flow cytometric analysis of EPC. The remaining 350-500 μL were processed for serum (SDF-1α). For flow cytometry, cells were washed and blocked and then stained with CD13-FITC, CD117-PE, 7-AAD, VEGFR2-APC, and CD45-PE/Cy7. A total of 50,000 cells were acquired per sample in the PBMNC gate.

[2] = system: endothelial progenitor cells (EPC); test: EPC mobilization in normal mice, single MONC402 dose; format: in vivo; settings: G-CSF 200 μg/kg 3 days; docetaxel i.p. 40 mg/kg; cisplatin i.p. 6 mg/kg; 24 h
Description: In one experiment, normal mice were treated with G-CSF (s.c., 3 consecutive days), docetaxel or cisplatin (one i.p. dose) with or without simultaneous MONC402 treatment (one s.c. dose). EPC mobilization was monitored 24 h later. Mice (8 mice/group) were dosed s.c. with Saline or MONC402 (40 mg/kg) (or DC101 at 40 mg/kg for control with docetaxel). About 30 min later, mice were given docetaxel (i.p., 40 mg/kg), cisplatin (i.p., 6 mg/kg), or saline control. As a positive control, 2 groups of mice were also dosed with G-CSF […]. (200 μg/kg) for 3 days, either alone or in combination with a single dose of MONC402 (s.c. at 40 mg/kg) on the last day. 24 h later, the mice were euthanized, and 0.5-0.8 mL of blood taken by cardiac puncture:
About 300 μL of whole blood was transferred directly into 14 mL of lysis buffer for flow cytometry of EPC. The remaining 300-600 μL were processed for serum (SDF-1α). For flow cytometry, lysed cells were washed and blocked, then stained with CD13-FITC, CD117-PE, 7-AAD, VEGFR2-APC, and CD45-PE/Cy7. A total of 50,000 cells were acquired per sample in the PBMNC gate.

[3] = system: endothelial progenitor cells (EPC); test: Docetaxel induced EPC mobilization in 4T1 tumor bearing mice, MONC402 via osmotic pump; format: in vivo; settings: Docetaxel 40 mg/kg i.p. Day 6; MONC402 osmotic pump 40 mg/kg/day monotherapy
Description: A third experiment was conducted to evaluate the effect of MONC402 on EPC mobilization in response to treatment with docetaxel in 4T1 tumor bearing mice.
4T1 tumors were implanted on Day 0 at 1×10^5 cells/mouse into the 4th mammary fat pad. Pumps with Saline or MONC402 were implanted on Day 0, immediately after tumor cell injections. Mice were randomized to the following groups: • 1. Saline Control, n=8 • 2. Docetaxel, 40 mg/kg, Day 6, n=8 • 3. M402, pump, 40 mg/kg/day, Day 0, n=8 • 4. Docetaxel, 40 mg/kg, Day 6+M402, pump, 40 mg/kg/day, Day 0, n=8
Docetaxel or Saline was administered i.p. on Day 6 in the AM. Four h later, mice were bled by submandibular plexus for EPC profiling and soluble factor analysis. Primary tumors were removed on Day 9 for histological analyses. Blood was also collected for soluble factor analyses (72 h after docetaxel dosing). Serum samples were analyzed using a 19-plex Luminex kit. In addition, samples were also tested for SDF-1α levels by ELISA.

[4] = system: 4T1 cells; test: Second 4T1 experiment, osmotic pump delivery; format: in vivo, BALB/c mice; settings: MONC402 20 mg/kg/day osmotic pump; Cisplatin 1.25 mg/kg weekly; day 32
Description: FIG. 2 is a bar graph showing the effect of a polysaccharide preparation described herein in a 4T1 therapeutic model of breast cancer metastasis to the lung. Lung tumor burden (lung weight-normal lung weight) was determined on day 32 for female BALB/c mice (8 weeks old) challenged with intra-mammary fat pad injection of 8×10^4 4T1 cells and treated as indicated starting on day 4. In a second 4T1 experiment, female BALB/c mice 8 WOA were injected with 8×10^4 4T1 cells intra mammary fat pad. Continuous osmotic pump delivery of saline or MONC 402 with weekly treatment of saline or Cisplatin started on day 4. Primary tumors were removed on day 9. […] The experiment terminated on day 32 and different samples were taken. 6 mice were either found dead or were terminated early due to worsened overall condition. 4T1 lung metastases were determined by lung weight, lung tumor nodule quantification including nodule number, size and calculated tumor volume, as well as histological quantification.

[5] = system: 4T1 cells; test: 4T1 breast cancer metastasis to the lung model, daily treatment; format: in vivo, BALB/c mice; settings: Cisplatin weekly from day 5
Description: Female BALB/c mice 8 weeks of age (WOA) were injected with 8×10^4 4T1 cell intra mammary fat pad. Daily treatment with saline or MONC402 with or without weekly treatment of cisplatin started on day 5. Primary tumors were removed on day 9 and weighed.

[6] = system: C170HM2 human colorectal tumor cells; test: C170HM2 colon cancer metastasis to the liver model; format: in vivo, MF1 nude (nu/nu) athymic mice; settings: 25 mg/kg i.v. cycled on days 1, 3, 5, 7; liver tumors day 35
Description: Liver metastasis was initiated by intraperitoneal injection of C170HM2 human colorectal tumor cells into male MF1 nude (nu/nu) athymic mice. 5FU/leucovorin was used as a positive control.
C170HM2 cells were maintained in vitro in RPMI culture medium (Sigma) containing 10% (v/v) heat inactivated fetal bovine serum and 2 mM L-glutamine at 37° C. in 5% CO2 and humidified conditions. Cells from sub-confluent monolayers were harvested with 0.025% EDTA, washed in culture medium and re-suspended in sterile phosphate buffered saline, pH 7.4 (PBS) for in vivo administration. 1.5×10^6 cells in a volume of 1 ml were injected intraperitoneally into 65 mice, and the mice were allocated into treatment groups as below.
Treatment was initiated on day 1 following cell injection and continued until day 35 or until the clinical condition of the animal required termination. Groups 5 and 6 missed one dose on day 5. No adverse affects of the test compounds in mice bearing the tumors were observed.
The study was terminated on day 35, and the tumors in the liver were excised and weighed. The numbers of lung nodules are also counted.

CC(=O)O[C@@]12CO[C@@H]1C[C@H](O)[C@@]1(C)C(=O)[C@H](O)C3=C(C)[C@@H](OC(=O)[C@H](O)[C@@H](NC(=O)OC(C)(C)C)c4ccccc4)C[C@@](O)([C@@H](OC(=O)c4ccccc4)[C@H]21)C3(C)C [Docetaxel, docetaxel]
EPC mobilization [1]: significant increase
EPC mobilization compared to Saline control [2]: significant increase
EPC in the blood at 4 h [3]: significant increase

N.N.[Cl][Pt][Cl] [Cisplatin, cisplatin]
4T1 lung metastasis [4]: significant anti-tumor efficacy
EPC mobilization compared to Saline control [2]: did not show this effect
Average lung tumor size [5]: 1.41
Average tumor size [5]: 1.36
Lung tumor nodule #/animal [5]: 5.6 ± 4.4
Total tumor nodule [5]: 89
Total tumor volume [5]: 134.13

5FU/leucovorin
Mean tumor area (% of vehicle) [6]: 15.7 % of vehicle
Mean tumor area (mm^2) [6]: 13.12 mm^2
Mean tumor weight [6]: 0.037 g
Mean tumor weight (% of vehicle) [6]: 11.94 % of vehicle

B1: granulocyte colony stimulating factor (protein, UniProt P09919 31-207, looked up)
Granulocyte …: TPLGPASSLPQSFLLKCLEQVRKIQGDGAALQEKLVSECATYKLCHPEELVLLGHSLGIPWAPLSSCPSQALQLAGCLSQLHSGLFLYQGLLQALEGISPELGPTLDTLQLDVADFATTIWQQMEELGMAPALQPTQGAMPAFASAFQRRAGGVLVASHLQSFLEVSYRVLRHLAQP
notes: growth factor used as positive control for EPC and MDSC mobilization
EPC mobilization [1]: significant increase
EPC mobilization compared to Saline control [2]: significant increase
